# Experimental data published in the supplement of paper PMC10307832.
# Compound: CN1CCC(CC1)OC2=CC(=C(C=C2)NC3=NC=C4C(=N3)N(C(=O)N4C)C5CCCC5)OC [AZ3146] + O=C(c1cc(Cc2n[nH]c(=O)c3ccccc23)ccc1F)N1CCN(C(=O)C2CC2)CC1 [Olaparib] (partner 8 µM)
# Assay: relative viability (nuclei count vs DMSO), 5 days (fraction); higher = more cells survive
# Conditions: first compound 0.08 µM
# Method in brief: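 Dosing by pin tool came one day after lung cancer cell lines were seeded in 1536-well plates, using either one drug or a fixed anchor-drug dose plus five library-drug doses (not always all listed) in √10 steps. After 5 days, nuclei were counted on 4× images. Relative viability is treated-well nuclei count divided by vehicle-well nuclei count, and values are medians of duplicate plates.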
row,Cell Line,relative viability
1,NCI-H522,0.68
2,PC-14,0.286
3,NCI-H1666,0.719
4,EKVX,0.798
5,NCI-H1755,0.867
6,NCI-H2023,0.464
7,SK-LU-1,0.452
8,PC-3 [JPC-3],1.04
9,LOU-NH91,0.922
10,NCI-H647,0.412
11,NCI-H23,0.291
12,EPLC-272H,0.892
13,NCI-H2126,0.908
14,ChaGo-K-1,0.352
15,HCC-44,0.996
16,NCI-H1734,0.58
17,NCI-H650,0.271
18,LK-2,0.61
19,NCI-H2228,0.873
20,NCI-H2342,0.464
21,NCI-H1944,0.36
22,HARA,0.618
23,Calu-6,0.55
24,COR-L23,0.28
25,LCLC-103H,0.755
26,LXF-289,1.13

row,Cell Line,relative viability
1,EBC-1,0.699
2,NCI-H358,0.555
3,NCI-H322M,0.839
4,LC-2-ad,0.697
5,HCC-827,0.624
6,A549,0.203
7,SW 900,0.706
8,NCI-H1299,0.932
9,CAL-12T,0.733
10,HCC-15,0.618
11,HOP-62,0.48
12,NCI-H460,0.242
13,NCI-H2085,0.792
14,A-427,0.689
15,NCI-H520,0.306
16,NCI-H838,0.771
17,NCI-H1792,0.351
18,NCI-H596,0.677
19,NCI-H3122,0.582
20,NCI-H1395,0.485
21,201T,0.855
22,NCI-H1993,1
23,IA-LM,0.775
24,NCI-H1355,0.72
25,NCI-H2405,0.827
26,NCI-H1703,0.424

# Same assay, conditions: first compound 0.253 µM
row,Cell Line,relative viability
1,NCI-H522,0.685
2,PC-14,0.319
3,NCI-H1666,0.79
4,EKVX,0.828
5,NCI-H1755,0.892
6,NCI-H2023,0.451
7,HCC-78,0.863
8,SK-LU-1,0.496
9,LOU-NH91,0.91
10,NCI-H647,0.474
11,NCI-H23,0.289
12,EPLC-272H,0.841
13,NCI-H2126,0.898
14,ChaGo-K-1,0.436
15,HCC-44,0.991
16,NCI-H1734,0.61
17,NCI-H650,0.361
18,LK-2,0.586
19,NCI-H2228,0.632
20,NCI-H2342,0.474
21,NCI-H1944,0.391
22,HARA,0.926
23,Calu-6,0.505
24,COR-L23,0.363
25,LCLC-103H,0.765
26,LXF-289,0.989
27,EBC-1,0.71

row,Cell Line,relative viability
1,NCI-H358,0.578
2,NCI-H322M,0.839
3,LC-2-ad,0.724
4,HCC-827,0.612
5,A549,0.268
6,NCI-H1299,0.941
7,CAL-12T,0.822
8,HCC-15,0.737
9,HOP-62,0.345
10,NCI-H460,0.45
11,LU99A,0.26
12,NCI-H2085,0.749
13,A-427,0.813
14,NCI-H520,0.352
15,NCI-H838,0.769
16,NCI-H1792,0.522
17,NCI-H596,0.738
18,NCI-H3122,0.611
19,BEN,1.07
20,NCI-H1395,0.532
21,201T,0.829
22,NCI-H1993,1.12
23,IA-LM,0.808
24,NCI-H1355,0.761
25,NCI-H2405,0.881
26,NCI-H1703,0.383

# Same assay, conditions: first compound 0.8 µM
row,Cell Line,relative viability
1,NCI-H522,0.515
2,PC-14,0.259
3,NCI-H1666,0.741
4,EKVX,0.811
5,NCI-H1755,0.89
6,NCI-H2023,0.494
7,HCC-78,0.765
8,SK-LU-1,0.414
9,PC-3 [JPC-3],1.01
10,LOU-NH91,0.972
11,NCI-H647,0.592
12,NCI-H23,0.389
13,EPLC-272H,0.878
14,NCI-H2126,0.897
15,ChaGo-K-1,0.361
16,HCC-44,1.06
17,NCI-H1734,0.632
18,NCI-H650,0.385
19,LK-2,0.559
20,NCI-H2228,0.672
21,NCI-H2342,0.529
22,NCI-H1944,0.408
23,HARA,0.818
24,Calu-6,0.535
25,COR-L23,0.353
26,LCLC-103H,0.778
27,LXF-289,1.07
28,EBC-1,0.671

row,Cell Line,relative viability
1,NCI-H358,0.592
2,NCI-H322M,0.644
3,LC-2-ad,0.697
4,HCC-827,0.625
5,A549,0.419
6,SW 900,0.785
7,NCI-H1299,0.944
8,CAL-12T,0.717
9,HCC-15,0.726
10,NCI-H1648,0.987
11,HOP-62,0.44
12,NCI-H460,0.416
13,LU99A,0.24
14,NCI-H2085,0.749
15,A-427,0.758
16,NCI-H520,0.396
17,NCI-H838,0.766
18,NCI-H1792,0.384
19,NCI-H596,0.752
20,NCI-H3122,0.543
21,BEN,1.12
22,201T,0.827
23,NCI-H1993,1.12
24,IA-LM,0.91
25,NCI-H1355,0.759
26,NCI-H2405,0.933
27,NCI-H1703,0.517

# Same assay, conditions: first compound 2.53 µM
row,Cell Line,relative viability
1,NCI-H522,0.695
2,PC-14,0.225
3,NCI-H1666,0.75
4,EKVX,1.07
5,NCI-H1755,0.945
6,NCI-H2023,0.436
7,HCC-78,0.767
8,SK-LU-1,0.445
9,PC-3 [JPC-3],1.25
10,LOU-NH91,0.904
11,NCI-H647,0.603
12,NCI-H23,0.356
13,EPLC-272H,0.914
14,NCI-H2126,0.967
15,ChaGo-K-1,0.421
16,HCC-44,0.964
17,NCI-H1734,0.607
18,NCI-H650,0.46
19,LK-2,0.672

row,Cell Line,relative viability
1,NCI-H2228,0.503
2,NCI-H2342,0.487
3,NCI-H1944,0.475
4,HARA,0.924
5,Calu-6,0.551
6,COR-L23,0.361
7,LCLC-103H,0.749
8,LXF-289,1.18
9,EBC-1,0.634
10,NCI-H358,0.583
11,NCI-H322M,0.813
12,LC-2-ad,0.733
13,HCC-827,0.568
14,A549,0.43
15,SW 900,0.846
16,NCI-H1299,0.938
17,CAL-12T,0.658
18,HCC-15,0.725
19,NCI-H1648,1.18

row,Cell Line,relative viability
1,HOP-62,0.361
2,NCI-H460,0.449
3,LU99A,0.271
4,NCI-H2085,0.764
5,A-427,0.794
6,NCI-H520,0.418
7,NCI-H838,0.724
8,NCI-H1792,0.42
9,NCI-H596,0.77
10,NCI-H3122,0.615
11,BEN,0.899
12,NCI-H1395,0.568
13,201T,0.874
14,NCI-H1993,1.04
15,IA-LM,0.919
16,NCI-H1355,0.83
17,NCI-H2405,0.925
18,NCI-H1703,0.346

# Same assay, conditions: first compound 8 µM
row,Cell Line,relative viability
1,NCI-H522,0.596
2,PC-14,0.0944
3,NCI-H1666,0.741
4,EKVX,0.798
5,NCI-H1755,0.923
6,NCI-H2023,0.152
7,HCC-78,0.798
8,SK-LU-1,0.441
9,PC-3 [JPC-3],1.09
10,LOU-NH91,0.925
11,NCI-H647,0.237
12,NCI-H23,0.338
13,EPLC-272H,0.643
14,NCI-H2126,0.862
15,ChaGo-K-1,0.357
16,HCC-44,0.942
17,NCI-H1734,0.612
18,NCI-H650,0.413
19,LK-2,0.831

row,Cell Line,relative viability
1,NCI-H2228,0.544
2,NCI-H2342,0.695
3,NCI-H1944,0.473
4,HARA,0.841
5,Calu-6,0.5
6,COR-L23,0.324
7,LCLC-103H,0.745
8,LXF-289,1.06
9,EBC-1,0.397
10,NCI-H358,0.442
11,NCI-H322M,0.729
12,LC-2-ad,0.658
13,HCC-827,0.785
14,A549,0.269
15,SW 900,0.754
16,NCI-H1299,0.789
17,CAL-12T,0.6
18,HCC-15,0.648
